# Like-named read-outs stand apart in the source and are kept apart here.
# How the values were obtained:
# [1] = system: serum uric acid level; test: Reference Example 14, action of lowering serum uric acid level in healthy adult males; type: in vivo; details: for maximum rate of decrease in a blood uric acid level: solid dispersion capsules of Formulation Example 1
# Protocol: For comparative reference, the results are shown in FIG. 9 together with the result of a case described in Non Patent Literature 3 in which febuxostat (40 mg) was used.
# [2] = system: plasma uric acid level; test: Reference Example 15, plasma uric acid in oxonic acid-induced hyperuricemic rats, 28-day repeated administration; type: in vivo, oxonic acid-induced hyperuricemic rats (Crl:CD (SD)); details: oral once a day for 28 days, non-fasting; Compound 14 0.3 mg/kg; Days 1, 7, 14, 21, 28
# Protocol: Compound 14 suspended in a 1% aqueous methylcellulose solution was orally administered to oxonic acid-induced hyperuricemic rats at a dose of 0.3 mg/kg once a day for 28 days under non-fasting conditions. As a control, a 1% aqueous methylcellulose solution was used, and as a positive control, febuxostat was used.
# As rats, male Crl:CD (SD) rats (produced by Charles River Laboratories Japan, Inc.) were used. The rats were purchased at the age of 6 weeks, and the administration was started at the age of 7 weeks.
# Potassium oxonate was prepared by adding and suspending 10 g of potassium oxonate (Sigma-Aldrich Corp., Lot No. 03810 HD) to 200 mL of 1% methyl cellulose (1% MC) with a mixer. […]
# The collection time points were set to before administration (1 hour before) and 2 and 6 hours after administration on Days 1, 7, 14, 21, and 28, and blood was collected in an amount of about 300 μL per time point from the tail vein (n=7). […] The concentration of uric acid in the plasma was measured by HPLC (Shiseido Co., Ltd., current OSAKA SODA).
# To acquire the predose value and data for grouping, a 1% aqueous methylcellulose solution was orally administered to all rats 5 days before the start of administration, and the uric acid concentration in the plasma was measured according to the above-described method such as subcutaneous administration of potassium oxonate. […]
# [3] = system: MOVAS-1 cells having XOR activity; test: Example 1, ATP enhancing action in hypoxic condition; type: cell-based; details: 1% oxygen, 4 hours
# Protocol: MOVAS-1 cells having XOR activity were used for Examples. All examinations were performed at n=3 for each number of samples. The medium of MOVAS-1 cells in a confluent state (with D-MEM/low glucose/10% FBS/100 μM Oxionate) was divided into a medium for a hypoxanthine addition group and a medium for a hypoxanthine non-addition group, 50 μM hypoxanthine, and 6 μM Compound 14, 10 μM febuxostat, or 100 μM allopurinol were added to the medium of the hypoxanthine addition group, and 6 μM Compound 14, 10 μM febuxostat, or 100 μM allopurinol was added to the medium of the hypoxanthine non-addition group. For the control of each group, only 50 μM hypoxanthine was added to the hypoxanthine addition group, and nothing was added to the hypoxanthine non-addition group. Thereafter, the media were allowed to stand for 4 hours under mixed gas conditions of 1% oxygen, 5% carbon dioxide, and 94% nitrogen. After deproteinization by PCA, ATP, ADP and AMP concentrations were measured using HPLC.
# [4] = system: MOVAS-1 cells having XOR activity; test: Example 2, ATP enhancing action in presence of uncoupler (CCCP); type: cell-based; details: 6 μM Compound 14, CCCP 10 μM, 30 minutes; versus control of the CCCP addition group
# Protocol: MOVAS-1 cells having XOR activity were used for Examples. All examinations were performed at n=3 for each number of samples. The medium of MOVAS-1 cells in a confluent state (with D-MEM/low glucose/10% FBS/100 uM Oxionate) was divided into a medium for a CCCP addition group and a medium for a CCCP non-addition group, and 6 μM Compound 14 was added to the media. Nothing was added to the control of each group. Thereafter, to the CCCP addition group, CCCP was added so as to have a final concentration of 10 μM. After standing for 30 minutes, deproteinization was performed by PCA, and then ATP, ADP, and AMP concentrations were measured using HPLC.
# [5] = system: RCS rats; test: Example 3, suppressive action on retinal degeneration; type: in vivo; details: oral once a day for 18 days, 1 mg/100 g body weight as Compound 14 (solid dispersion of Formulation Example 1); versus control, p<0.05, n=4
# Protocol: (§1) Three week old RCS rats (CLEA Japan, Inc., male) were purchased and randomly divided into a control group and a Compound 14 administration group. From 3.5 weeks of age, control and Compound 14 were orally administered daily once a day for 18 days. To the control group, 1% methylcellulose (Metrose (SM-15) manufactured by Shin-Etsu Chemical Co., Ltd.) was administered, and to the Compound 14 administration group, a preparation in which a solid dispersion of Compound 14 described in “Formulation Example 1” described later was suspended in 1% methylcellulose was administered at a dose of 5 mg/100 g body weight (1 mg/100 g body weight as Compound 14) per administration. Because xanthine stones are likely to occur in rodents due to XOR inhibition, Uralyt-U combination powder (manufactured by Nippon Chemiphar Co., Ltd.) was administered to both groups in drinking water at a concentration of 1% (w/v) in order to prevent/reduce xanthine stones. On Day 19 after completion of administration for 18 days, eyeballs of both eyes were collected from both groups, and a tissue image was observed on one eyeball.
# [6] = system: eyeball; test: Example 4, measurement of concentration of various molecules in eyeball; type: in vivo, RCS rats; parameters: unit not given here; details: Day 19 after 18 days oral administration
# Protocol: as §1
# Concentrations of various molecules in one eyeball collected in Example 3 were measured. The eyeball stored at −80° C. was freeze-pulverized, a 5% perchloric acid solution in an amount of 2 times (w/w) was added, and the mixture was vortexed. The supernatant obtained by centrifugation at 15000 rpm and 4° C. for 5 minutes was neutralized with a 3 M potassium carbonate solution. The mixture was centrifuged again at 15000 rpm and 4° C. for 5 minutes, and the supernatant was equilibrated with 0.5 M sodium phosphate buffer to prepare an eyeball extraction solution. ATP, ADP, AMP, IMP, inosine, hypoxanthine, xanthine, uric acid, GTP, GDP, and GMP in the solution were measured by HPLC (HPLC: Shimadzu Corporation LC-20AD, Diode array detector: Shimadzu Corporation SPD-M20A), and the energy charge was calculated (Calculation formula: ([ATP]+½ [ADP])/([ATP]+[ADP]+[AMP])).
# [7] = system: serum; test: Example 5, concentration of hypoxanthine and inosine in serum; type: in vivo, RCS rats; details: Day 11 after 10 days daily oral administration
# Protocol: In the same manner as in Example 3, to RCS rats, control or Compound 14 was orally administered daily for 10 days, and Uralyt-U combination powder (manufactured by Nippon Chemiphar Co., Ltd.) was administered in drinking water. On Day 11 after completion of administration for 10 days, blood was collected from both groups to prepare serum.
# [8] = Distribution of administered Compound 14 in the eyeball; type: in vivo; details: Compound 14 administered to the rat
# [9] = system: serum uric acid level; details: febuxostat 40 mg, case described in Non Patent Literature 3; first day of the administration (about 15 hours after the administration); cited from earlier work
# [10] = Test Example 2b, absorbability of solid dispersion containing Compound 14 in rats; type: in vivo, rats (Crl:CD (SD)); details: rat, single oral, 30 mg/kg as Compound 14, fasted
# Protocol: A single dose of 10 mg/kg or 30 mg/kg, as Compound 14, of the solid dispersions of Reference Example 2b and Comparative Reference Example 10b and the sample of Comparative Reference Example 11b suspended in a 1% carboxymethylcellulose aqueous solution was orally administered to fasted male rats (8 weeks old, Crl:CD (SD), Japan Charles River Laboratories). A crystalline drug substance of Compound 14 was used as a control (Comparative Reference Example 12b). A collection time was 0.5, 1, 2, 4, 8, and 24 hours after administration, and about 300 μL of blood was collected at each time point from vena caudalis (n=3). The obtained blood was centrifuged at 1500×g, 4° C. for 15 minutes to obtain a plasma. The concentration of Compound 14 in the plasma was measured by HPLC (Shiseido Company, Limited and Hitachi High-Technologies Corporation). A time to reach the highest concentration in the plasma (Tmax), the highest concentration in the plasma (Cmax) and an area under the plasma concentration-time curve (AUC) were calculated from the change in the concentration in the obtained plasma. Here, values in the table are the mean value±standard deviation of three examples.
smiles,measurement,setting,value
"N#Cc1cc(-c2nc3c(O)ncnc3s2)ccc1Oc1ccccc1 [Compound 14, 2-(3-Cyano-4-phenoxyphenyl)-7-hydroxythiazolo[5,4-d]pyrimidine]",serum uric acid level over the administration period,"[1]; 40 mg once daily for 7 days, capsules containing micronized Compound 14",gradually decreased over time throughout the administration period
same,maximum rate of decrease in a blood uric acid level,"[1]; 80 mg once daily for 7 days, seventh day (about 8 hours after the administration)",about 30%
same,maximum rate of decrease in a blood uric acid level,"[1]; 80 mg once daily, first day of the administration (12 hours after the administration)",about 17%
same,rate of change of the plasma uric acid level AUC (−1) to 6 with respect to the control group,[2],increased with repeated administration
same,"ATP enhancing action (ATP, ADP and AMP concentrations)","[3]; 6 μM Compound 14 versus 10 μM febuxostat or 100 μM allopurinol, with or without 50 μM hypoxanthine",exhibited effects at doses lower than febuxostat and allopurinol
same,"ATP enhancing action in hypoxic condition, hypoxanthine in combination","[3]; 50 μM hypoxanthine, 6 μM Compound 14 versus 10 μM febuxostat",significant difference between Compound 14 and febuxostat
same,total adenylate concentration,[4],higher than the total adenylate concentration of the control group of the CCCP addition group
same,thinning of the outer nuclear layer and the cone-rod layer in the retinal tissue,[5],significantly suppressed
same,GTP,[6]; NS p = 0.069 vs control,53.157 ± 8.352
same,Hypoxanthine,[6]; NS p = 0.081 vs control,8.450 ± 3.244
same,Xanthine,[6]; NS p = 0.095 vs control,1.739 ± 0.590
same,GMP,[6]; p = 0. 000 vs control,2.458 ± 1.898
same,IMP,[6]; p = 0.002 vs control,3.640 ± 1.122
same,ADP,[6]; p = 0.004 vs control,55.134 ± 7.253
same,AMP,[6]; p = 0.010 vs control,27.828 ± 8.547
same,Uric acid,[6]; p = 0.027 vs control,1.344 ± 0.444
same,ATP,[6]; p = 0.033 vs control,175.809 ± 25.506
same,GDP,[6]; p = 0.036 vs control,8.115 ± 1.245
same,Inosine,[6]; p = 0.047 vs control,13.063 ± 4.690
same,increase of the concentration of hypoxanthine in the serum versus control,[7],about 7 times
same,increase of the concentration of inosine in the serum versus control,[7],about 38 times
same,"Hypoxanthine, Serum (n = 4)",[7]; p = 0.023 vs control,92.020 ± 47.670
same,"Inosine, Serum (n = 4)",[7]; p = 0.026 vs control,9.950 ± 6.280
same,distribution in the eyeball,[8],hardly distributed in the eyeball
"Cc1nc(-c2ccc(OCC(C)C)c(C#N)c2)sc1C(=O)O [febuxostat, reference compound]",rate of change of the plasma uric acid level AUC (−1) to 6 with respect to the control group,[2],no clear increase was observed
same,maximum rate of decrease in a blood uric acid level,[9],about 35%
"N#Cc1cc(-c2nc3c(O)ncnc3s2)ccc1Oc1ccccc1 [Comparative Reference Example 12b, 2-(3-Cyano-4-phenoxyphenyl)-7-hydroxythiazolo[5,4-d]pyrimidine]",AUClast,[10],1157 ± 261 ng·h/mL
same,Cmax,[10],239 ± 99 ng/mL
same,Tmax,[10],4.7 ± 3.1 h
"N#Cc1cc(-c2nc3c(O)ncnc3s2)ccc1Oc1ccccc1 [Comparative Reference Example 11b, 2-(3-Cyano-4-phenoxyphenyl)-7-hydroxythiazolo[5,4-d]pyrimidine]",AUClast,[10],15369 ± 7776 ng·h/mL
same,Cmax,[10],1724 ± 65 ng/mL
